Laboratory results from US7820720B2 (TDT Limited, priority 2008, dated 2010).

Experiment: Terbinafine serum concentration after topical administration (LC-MSMS)
Type: in vivo, human
Details: topical terbinafine formulation, 6.0 mg dose; day 1 and week 12; all individuals, each time point, steady state and all trough levels
Experimental: Blood samples (2.7 ml) for the determination of terbinafine concentrations in serum were taken before the first application (0 hour) and 0.5, 1, 2, 4, 8, and 12 hours after administration of a 6.0 mg dose of topical terbinafine. The sample 12 hours following the first administration was taken before the second daily administration of the topical terbinafine formulation.
Serum samples for terbinafine were analyzed by LC-MSMS. The internal standard used was naftifine. Samples were prepared by adding 50 μL serum to 50 μL methanol and 300 μL of internal standard solution (50 μg/L naftifine in 9:1 acetonitrile/methanol solution). The solution was allowed to stand for 5 minutes, and then subjected to centrifugation. After centrifugation, 50 μL of the supernatant was added to 450 μL of the mobile phase solution.
The serum concentrations were measured at day 1 and week 12 of the study.

With `CN(C/C=C/C#CC(C)(C)C)Cc1cccc2ccccc12` [terbinafine] the Terbinafine serum concentration was “less than 1 ng/ml”.
